In patent publication US12077503B2, “Substituted cyclic amides and their use as herbicides” (FMC CORPORATION, priority 2015, dated 2024):

What was measured:
Type in all cases: in vivo
[1] = system: barnyardgrass (Echinochloa crus-galli); assay: Test B flooded paddy test; conditions: Echinochloa crus-galli, 250 g ai/ha, Flood; 0 to 100 scale where 0 is no effect and 100 is complete control; read-out: Barnyardgrass plant response rating
In short: (§1)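 Flooding to 3 cm over soil accompanied treatment, which consisted of adding compound to the standing water around 2-leaf plants; depth was then maintained. Visual assessment versus controls followed at 13 to 15 d (scale 0–100, 0 meaning no effect).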

[2] = system: sedge, umbrella (small-flower umbrella sedge, Cyperus difformis); assay: Test B flooded paddy test; conditions: Cyperus difformis, 250 g ai/ha, Flood; 0 to 100 scale where 0 is no effect and 100 is complete control; read-out: Sedge, Umbrella plant response rating
In short: as §1

[3] = system: rice (Oryra sativa); assay: Test B flooded paddy test; conditions: Oryza sativa, 250 g ai/ha, Flood; 0 to 100 scale where 0 is no effect and 100 is complete control; read-out: Rice plant response rating
In short: as §1

[4] = system: ducksalad (Heteranthera limosa); assay: Test B flooded paddy test; conditions: Heteranthera limosa, 250 g ai/ha, Flood; 0 to 100 scale where 0 is no effect and 100 is complete control; read-out: Ducksalad plant response rating
In short: as §1

[5] = system: Kochia (Kochia scoparia); assay: Test A postemergence; conditions: Bassia scoparia, post-emergence, 240 h, read-out: Kochia plant response rating (0 to 100 scale)
In short: (§2)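 Seeds sprayed preemergence with a directed soil spray, or plants at 2 to 10 cm height and one- to two-leaf stage sprayed postemergence, with test chemicals in a non-phytotoxic solvent mixture containing surfactant, in loam soil–sand blend. Injury rated visually against untreated controls after about 10 d in greenhouse, 0 (no effect) to 100 (complete control).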

[6] = system: giant foxtail (Setaria faberii); assay: Test A postemergence; conditions: Setaria faberi, post-emergence, 240 h, read-out: Foxtail, Giant plant response rating (0 to 100 scale)
In short: as §2

[7] = system: barnyardgrass (Echinochloa crus-galli); assay: Test A postemergence; conditions: Echinochloa crus-galli, post-emergence, 240 h, read-out: Barnyardgrass plant response rating (0 to 100 scale)
In short: as §2

[8] = system: wheat (Triticum aestivum); assay: Test A postemergence; conditions: Triticum aestivum, post-emergence, 240 h, Postemergence, 31 g ai/ha; 0 is no effect, 100 is complete control; read-out: Wheat plant response rating (0 to 100 scale)
In short: as §2

[9] = system: Galium (catchweed bedstraw, Galium aparine); assay: Test A postemergence; conditions: Galium, post-emergence, 240 h, read-out: Galium plant response rating (0 to 100 scale)
In short: as §2

[10] = system: ragweed (common ragweed, Ambrosia elatior); assay: Test A postemergence; conditions: Ambrosia artemisiifolia, post-emergence, 240 h, read-out: Ragweed plant response rating (0 to 100 scale)
In short: as §2

[11] = system: pigweed (Amaranthus retroflexus); assay: Test A postemergence; conditions: Amaranthus retroflexus, post-emergence, 240 h, read-out: Pigweed plant response rating (0 to 100 scale)
In short: as §2

[12] = system: corn (Zea mays); assay: Test A postemergence; conditions: Zea mays, post-emergence, 240 h, read-out: Corn plant response rating (0 to 100 scale)
In short: as §2

[13] = system: blackgrass (Alopecurus myosuroides); assay: Test A postemergence; conditions: Alopecurus myosuroides, post-emergence, 240 h, read-out: Blackgrass plant response rating (0 to 100 scale)
In short: as §2

[14] = system: ryegrass, Italian (Italian ryegrass, Lolium multiflorum); assay: Test A postemergence; conditions: Lolium multiflorum, post-emergence, 240 h, read-out: Ryegrass, Italian plant response rating (0 to 100 scale)
In short: as §2

[15] = system: Kochia (Kochia scoparia); assay: Test A preemergence; conditions: Bassia scoparia, pre-emergence, 240 h, 0 to 100 scale where 0 is no effect and 100 is complete control, read-out: Kochia plant response rating
In short: as §2

[16] = system: giant foxtail (Setaria faberii); assay: Test A preemergence; conditions: Setaria faberi, pre-emergence, 240 h, 0 to 100 scale where 0 is no effect and 100 is complete control, read-out: Foxtail, Giant plant response rating
In short: as §2

[17] = system: barnyardgrass (Echinochloa crus-galli); assay: Test A preemergence; conditions: Echinochloa crus-galli, pre-emergence, 240 h, 0 to 100 scale where 0 is no effect and 100 is complete control, read-out: Barnyardgrass plant response rating
In short: as §2

[18] = system: ragweed (common ragweed, Ambrosia elatior); assay: Test A preemergence; conditions: Ambrosia artemisiifolia, pre-emergence, 240 h, 0 to 100 scale where 0 is no effect and 100 is complete control, read-out: Ragweed plant response rating
In short: as §2

[19] = system: pigweed (Amaranthus retroflexus); assay: Test A preemergence; conditions: Amaranthus retroflexus, pre-emergence, 240 h, 0 to 100 scale where 0 is no effect and 100 is complete control, read-out: Pigweed plant response rating
[20] = system: ryegrass, Italian (Italian ryegrass, Lolium multiflorum); assay: Test A preemergence; conditions: Lolium multiflorum, pre-emergence, 240 h, 0 to 100 scale where 0 is no effect and 100 is complete control, read-out: Ryegrass, Italian plant response rating
In short: as §2

[21] = 125 g ai/ha, postemergence, visual injury vs untreated controls after approx. 10 d, 0 = no effect, 100 = complete control
[22] = Postemergence, 31 g ai/ha, 0 is no effect, 100 is complete control
[23] = 125 g ai/ha, preemergence, visual injury rating, approximately 10 d

CN1C[C@H](c2ccc(Cl)c(F)c2)[C@@H](C(=O)Nc2ccc(F)c(F)c2F)C1=O [Compound 1266]
70%: pest or weed control at 125 g/ha [5, 21] | pest or weed control at 125 g/ha [11, 21] | pest or weed control at 125 g/ha [14, 21]
0%: pest or weed control at 250 g/ha [2] | plant injury at 31 g/ha [8] | pest or weed control at 31 g/ha [10, 22] | pest or weed control at 31 g/ha ([20]; 31 g ai/ha, Preemergence)
20%: pest or weed control at 31 g/ha [11, 22] | pest or weed control at 31 g/ha [13, 22] | pest or weed control at 31 g/ha [14, 22] | pest or weed control at 31 g/ha ([18]; 31 g ai/ha, Preemergence) | pest or weed control at 31 g/ha ([19]; 31 g ai/ha, Preemergence)
30%: pest or weed control at 31 g/ha [5, 22]
50%: pest or weed control at 250 g/ha [3] | pest or weed control at 31 g/ha [9, 22] | pest or weed control at 125 g/ha [10, 21]
60%: pest or weed control at 250 g/ha [1] | pest or weed control at 125 g/ha [9, 21] | pest or weed control at 125 g/ha [13, 21] | pest or weed control at 125 g/ha [18, 23]
100%: pest or weed control at 250 g/ha [4]
40%: pest or weed control at 31 g/ha ([15]; 31 g ai/ha, Preemergence) | pest or weed control at 125 g/ha [20, 23]
90%: pest or weed control at 125 g/ha [7, 21] | pest or weed control at 31 g/ha [7, 22] | plant injury at 125 g/ha [12, 21] | plant injury at 31 g/ha [12, 22] | pest or weed control at 31 g/ha ([16]; 31 g ai/ha, Preemergence) | pest or weed control at 125 g/ha [16, 23] | pest or weed control at 125 g/ha [17, 23]
80%: pest or weed control at 125 g/ha [6, 21] | pest or weed control at 31 g/ha [6, 22] | pest or weed control at 125 g/ha [15, 23] | pest or weed control at 31 g/ha ([17]; 31 g ai/ha, Preemergence) | pest or weed control at 125 g/ha [19, 23]
